Key:
Format in all cases: in vivo
[1] = test system: winter wheat, TRZAW; assay: Method A: safener seed treatment, herbicide post-emergence, visual % crop damage; details: safener seed treatment 0.5 g/kg only, no herbicide
Procedure: (§1) For the safener seed treatment, sufficient seeds were weighed into screw top glass bottles approximately twice the volume of the seeds.
(§2) The safener (mefenpyr-diethyl, formulated as suspension concentrate (SC)) was weighed out so that the required rates (g a.i./kg seed) would be obtained, dissolved in water (1 ml water per 10 g of seeds), and added to the seeds to produce a slurry.
(§3) The bottles were capped and then placed in an overhead shaker (set at medium speed for up to 1 hour) so that the seeds were evenly coated with the slurry. The bottles were uncapped and the seeds were sown as described above.
(§4) For the seed treatment process, the blind formulation (the SC formulation without the safener mefenpyr-diethyl) was used as seed treatment as described above.
Post-emergence application of the herbicide was done when the plants had reached growth stage BBCH11.
(§5) After application, the test plants were kept in the greenhouse under good growth conditions.
(§6) Values in the table below are mean values from at least 3 replicates.

[2] = test system: winter wheat, TRZAW; assay: Method D: safener seed treatment, herbicide and safener tank mix pre-emergence, visual % crop damage
Procedure: as §1, §2, §3, §4
(§7) The combination of herbicide and safener was applied as a tank mix.
as §5, §6

[3] = test system: winter wheat, TRZAW; assay: Method C: safener seed treatment, herbicide and safener tank mix post-emergence, visual % crop damage
Procedure: as §1, §2, §3, §4
Post-emergence application was done when the plants had reached growth stage BBCH11.
The safener (mefenpyr-diethyl) was formulated as wettable powder (WP).
as §7, §5, §6

[4] = safener seed treatment 0.5 g/kg only, no herbicide

Question: What does the source list for `CCOC(=O)C1=NN(c2ccc(Cl)cc2Cl)C(C)(C(=O)OCC)C1` (centres unmarked) [Safener seed treatment, ethyl 1-(2,4-dichlorophenyl)-5-(ethoxycarbonyl)-5-methyl-2-pyrazoline-3-carboxylate]?
Answer: % crop damage [1]: 0%; % crop damage ([2]; safener 200 g/ha in tank mix only, pre-emergence, 14 days after application): 5%; % crop damage [2, 4]: 2%; % crop damage ([3]; safener 200 g/ha in tank mix only, post-emergence, 14 days after application): 5%; % crop damage [3, 4]: 0%
